Reference: PMC9598367, “Discovery and Preliminary Structure-Activity Investigation of 3-Substituted-1H-imidazol-5-yl-1H-indoles with In Vitro Activity towards Methicillin-Resistant Staphylococcus aureus” (Antibiotics, 2022)
Converted amounts (≈) assume the structure as drawn. Where two headings read alike, the source gives them in different places. Marks after values point to notes of the source that are not given here.

Tests used:
[1] = tested on: Staphylococcus aureus ATCC43300 (MRSA); experiment: MIC, MRSA ATCC43300 (CO-ADD protocol); format: cell-based; details: for MIC: Staphylococcus aureus, read-out: MIC (µg/mL) MRSA
Description: Additional antimicrobial evaluation against Staphylococcus aureus MRSA (ATCC43300), Pseudomonas aeruginosa (ATCC27853), Escherichia coli (ATCC25922), Klebsiella pneumoniae (ATCC700603), Acinetobacter baumannii (ATCC19606), Candida albicans (ATCC90028), and Cryptococcus neoformans (ATCC208821) was undertaken at the Community for Open Antimicrobial Drug Discovery at The University of Queensland (Australia) according to their standard protocols. For antimicrobial assays, the tested strains were cultured in either Luria broth (LB) (In Vitro Technologies, USB75852, Noble Park North, Australia), nutrient broth (NB) (Becton Dickson, 234000, Macquarie Park, Australia), or cation-adjusted MHB at 37 °C overnight. A sample of culture was then diluted 40-fold in fresh MHB and incubated at 37 °C for 1.5−2 h. The compounds were serially diluted 2-fold across the wells of 96-well plates (Corning 3641, Tewksbury, MA, USA, nonbinding surface), with compound concentrations ranging from 0.015 to 64 μg/mL, plated in duplicate. The resultant mid log phase cultures were diluted to the final concentration of 1 × 10^6 CFU/mL; then, 50 μL was added to each well of the compound containing plates giving a final compound concentration range of 0.008 to 32 μg/mL and a cell density of 5 × 10^5 CFU/mL. All plates were then covered and incubated at 37 °C for 18 h. Resazurin was added at 0.001% final concentration to each well and incubated for 2 h before MICs were read by eye.
(§1) Colistin and vancomycin were used as positive bacterial inhibitor standards for Gram-negative and Gram-positive bacteria, respectively. Fluconazole was used as a positive fungal inhibitor standard for C. albicans and C. neoformans. The antibiotics were provided in 4 concentrations, with 2 above and 2 below its MIC value, and plated into the first 8 wells of column 23 of the 384-well NBS plates. The quality control (QC) of the assays was determined by the antimicrobial controls and the Z′-factor (using positive and negative controls).

[2] = tested on: Cryptococcus neoformans ATCC208821; experiment: Antifungal MIC, C. neoformans; format: cell-based; details: Cryptococcus neoformans ATCC208821; mean (n = 2)
Protocol: For the antifungal assay, fungi strains were cultured for 3 days on yeast extract-peptone dextrose (YPD) agar at 30 °C. A yeast suspension of 1 × 10^6 to 5 × 10^6 CFU/mL was prepared from five colonies. These stock suspensions were diluted with yeast nitrogen base (YNB) (Becton Dickinson, 233520) broth to a final concentration of 2.5 × 10^3 CFU/mL. The compounds were serially diluted 2-fold across the wells of 96-well plates (Corning 3641, nonbinding surface), with compound concentrations ranging from 0.015 to 64 μg/mL and final volumes of 50 μL, plated in duplicate. Then, 50 μL of the fungi suspension that was previously prepared in YNB broth to the final concentration of 2.5 × 10^3 CFU/mL was added to each well of the compound-containing plates, giving a final compound concentration range of 0.008 to 32 μg/mL. Plates were covered and incubated at 35 °C for 36 h without shaking. C. albicans MICs were determined by measuring the absorbance at OD530. For C. neoformans, resazurin was added at 0.006% final concentration to each well and incubated for a further 3 h before MICs were determined by measuring the absorbance at OD570–600.
as §1

[3] = HEK293 cytotoxicity assay (resazurin); format: cell-based, human; details: human; for CC50 at 20 h: concentration at 50% cytotoxicity on HEK293 cells, mean (n = 2)
Protocol: For the HEK293 cytotoxicity assay, cells were counted manually in a Neubauer hemocytometer and plated at a density of 5000 cells/well into each well of the 384-well plates containing the 25× (2 μL) concentrated compounds. The medium used was Dulbecco’s modified eagle medium (DMEM) supplemented with 10% fetal bovine serum (FBS). Cells were incubated together with the compounds for 20 h at 37 °C, 5% CO2. To measure cytotoxicity, 5 μL (equals 100 μM final) of resazurin was added to each well after incubation, and incubated for further 3 h at 37 °C with 5% CO2. After final incubation fluorescence intensity was measured as Fex 560/10 nm, em 590/10 nm (F560/590) using a Tecan M1000 Pro monochromator plate reader. CC50 values (concentration at 50% cytotoxicity) were calculated by normalizing the fluorescence readout, with 74 μg/mL tamoxifen as negative control (0%) and normal cell growth as positive control (100%). The concentration-dependent percentage cytotoxicity was fitted to a dose response function (using Pipeline Pilot) and CC50 values determined.

[4] = tested on: Staphylococcus aureus ATCC25923; experiment: MIC by broth dilution, S. aureus ATCC25923; format: cell-based; details: Staphylococcus aureus ATCC25923; mean (n = 3)
Protocol: The susceptibility of S. aureus (ATCC25923) to antibiotics and compounds was determined in microplates using the standard broth dilution method in accordance with the recommendations of the Comité de l’AntibioGramme de la Société Française de Microbiologie (CA-SFM) as previously described. Briefly, the minimal inhibitory concentrations (MICs) were determined with an inoculum of 10^5 CFU in 200 µL of Mueller-Hinton broth (MHB) containing two-fold serial dilutions of each drug. […] To determine all MICs, the measurements were independently repeated in triplicate.

human red blood cells = experiment: Hemolytic assay; format: cell-based; details: concentration at 10% hemolytic activity on human red blood cells; mean (n = 2)
Protocol: Human whole blood was washed three times with 3 volumes of 0.9% NaCl and then resuspended in same to a concentration of 0.5 × 10^8 cells/mL, as determined by manual cell count in a Neubauer hemocytometer. The washed cells were then added to the 384-well compound-containing plates for a final volume of 50 μL. After a 10 min shake on a plate shaker the plates were then incubated for 1 h at 37 °C. After incubation, the plates were centrifuged at 1000 g for 10 min to pellet cells and debris, 25 μL of the supernatant was then transferred to a polystyrene 384-well assay plate. Hemolysis was determined by measuring the supernatant absorbance at […] (OD405). The absorbance was measured using a Tecan M1000 Pro monochromator plate reader. HC10 and HC50 (concentration at 10% and 50% hemolysis, respectively) were calculated by curve fitting the inhibition values vs. log(concentration) using a sigmoidal dose–response function with variable fitting values for top, bottom and slope.

[5] = Staphylococcus aureus ATCC43300 (MRSA), mean (n = 2)

Row | SMILES | melting point | MIC [1, 5] | MIC [2] | CC50 at 20 h [3] | MIC [4] | HC10 (human red blood cells) | anti-MRSA activity (in words) ([1]; result in words) | HC10 (µg/mL) (human red blood cells) | IC50 at 20 h ([3]; HEK293 cells, positive control) | MIC [1]
1 | c1ccc(CCn2cncc2-c2c[nH]c3ccccc23)cc1 [Compound 1, 3-(1-Phenethyl-1H-imidazol-5-yl)-1H-indole] | 69 to 70 °C | 16 µg/mL (≈ 55.7 µM) | > 32 µg/mL | 19.3 µg/mL (≈ 67.2 µM) | > 200 µg/mL | >32 µg/mL |  |  |  | 
2 | COc1ccc(CCn2cncc2-c2c[nH]c3cc(Cl)ccc23)cc1 [Compound 2, 6-Chloro-3-(1-(4-methoxyphenethyl)-1H-imidazol-5-yl)-1H-indole] | 165 to 166 °C | 16 µg/mL (≈ 45.5 µM) | 32 µg/mL (≈ 91 µM) | 22.5 µg/mL (≈ 64 µM) | > 200 µg/mL | >32 µg/mL |  |  |  | 
3 | Fc1ccc2[nH]cc(-c3cncn3CCc3ccccc3)c2c1 [Compound 3, 5-Fluoro-3-(1-phenethyl-1H-imidazol-5-yl)-1H-indole] | 127 to 130 °C |  |  |  |  |  | devoid of activity |  |  | 
4 | Brc1ccc2[nH]cc(-c3cncn3Cc3ccc(I)cc3)c2c1 [Compound 9, 5-Bromo-3-(1-(4-iodobenzyl)-1H-imidazol-5-yl)-1H-indole] | > 200 °C | 16 µg/mL (≈ 33.5 µM) | 16 µg/mL (≈ 33.5 µM) | 5.1 µg/mL (≈ 10.7 µM) | > 200 µg/mL | >32 µg/mL |  |  |  | 
5 | COc1ccc(Cn2cncc2-c2c[nH]c3ccccc23)cc1 [Compound 11, 3-(1-(4-Methoxybenzyl)-1H-imidazol-5-yl)-1H-indole] | 159 to 160 °C | 32 µg/mL (≈ 105 µM) | > 32 µg/mL | 25.6 µg/mL (≈ 84.4 µM) | > 200 µg/mL | >32 µg/mL |  |  |  | 
6 | COc1ccc(Cn2cncc2-c2c[nH]c3cc(Br)ccc23)cc1 [Compound 17, 6-Bromo-3-(1-(4-methoxybenzyl)-1H-imidazol-5-yl)-1H-indole] | 188 to 189 °C | 32 µg/mL (≈ 83.7 µM) | 32 µg/mL (≈ 83.7 µM) | 11.1 µg/mL (≈ 29 µM) | 25 µg/mL (≈ 65.4 µM) | >32 µg/mL |  |  |  | 
7 | Fc1ccc2c(-c3cncn3CCc3ccccc3)c[nH]c2c1 [Compound 18, 6-Fluoro-3-(1-phenethyl-1H-imidazol-5-yl)-1H-indole] |  | 32 µg/mL (≈ 105 µM) | > 32 µg/mL | 16.3 µg/mL (≈ 53.4 µM) | 25 µg/mL (≈ 81.9 µM) |  |  | >32^c µg/mL |  | 
8 | Clc1ccc2[nH]cc(-c3cncn3CCc3ccccc3)c2c1 [Compound 19, 5-Chloro-3-(1-phenethyl-1H-imidazol-5-yl)-1H-indole] | > 200 °C | 16 µg/mL (≈ 49.7 µM) | > 32 µg/mL | 17.3 µg/mL (≈ 53.8 µM) | 12.5 µg/mL (≈ 38.8 µM) | >32 µg/mL |  |  |  | 
9 | Brc1ccc2c(-c3cncn3CCc3ccccc3)c[nH]c2c1 [Compound 22, 6-Bromo-3-(1-phenethyl-1H-imidazol-5-yl)-1H-indole] |  | 16 µg/mL (≈ 43.7 µM) | 32 µg/mL (≈ 87.4 µM) | 12.7 µg/mL (≈ 34.7 µM) | 12.5 µg/mL (≈ 34.1 µM) | >32 µg/mL |  |  |  | 
10 | COc1ccc(CCn2cncc2-c2c[nH]c3cc(F)ccc23)cc1 [Compound 25, 6-Fluoro-3-(1-(4-methoxyphenethyl)-1H-imidazol-5-yl)-1H-indole] |  | 16 µg/mL (≈ 47.7 µM) | > 32 µg/mL | 27 µg/mL (≈ 80.5 µM) | 100 µg/mL (≈ 298 µM) | >32 µg/mL |  |  |  | 
11 | COc1ccc(OC)c(CCn2cncc2-c2c[nH]c3ccccc23)c1 [Compound 29, 3-(1-(2,5-Dimethoxyphenethyl)-1H-imidazol-5-yl)-1H-indole] |  | 32 µg/mL (≈ 92.1 µM) | > 32 µg/mL | 11.5 µg/mL (≈ 33.1 µM) | > 200 µg/mL | >32 µg/mL |  |  |  | 
12 | CC/C(=C(\c1ccccc1)c1ccc(OCCN(C)C)cc1)c1ccccc1 [Tamoxifen, reference compound] |  |  |  |  |  |  |  |  | 9 µg/mL (≈ 24.2 µM) | 
13 | O=C(N[C@H](CO)[C@H](O)c1ccc([N+](=O)[O-])cc1)C(Cl)Cl [chloramphenicol, reference compound] |  |  |  |  | 0.5 to 1 µg/mL (≈ 1.55 to 3.09 µM) |  |  |  |  | 
14 | OC(Cn1cncn1)(Cn1cncn1)c1ccc(F)cc1F [fluconazole, reference compound] |  |  | 8 µg/mL (≈ 26.1 µM) |  |  |  |  |  |  | 
15 | [H]/N=C(/N)N[C@H]1[C@H](O)[C@@H](O)[C@H](O[C@@H]2O[C@@H](C)[C@](O)(C=O)[C@H]2O[C@@H]2O[C@@H](CO)[C@H](O)[C@@H](O)[C@@H]2NC)[C@@H](N/C(N)=N\[H])[C@@H]1O [streptomycin, reference compound] |  |  |  |  | 12.5 µg/mL (≈ 21.5 µM) |  |  |  |  | 
16 | CN[C@H](CC(C)C)C(=O)N[C@H]1C(=O)N[C@@H](CC(N)=O)C(=O)N[C@H]2C(=O)N[C@H]3C(=O)N[C@H](C(=O)N[C@H](C(=O)O)c4cc(O)cc(O)c4-c4cc3ccc4O)[C@H](O)c3ccc(c(Cl)c3)Oc3cc2cc(c3O[C@@H]2O[C@H](CO)[C@@H](O)[C@H](O)[C@H]2O[C@H]2C[C@](C)(N)[C@H](O)[C@H](C)O2)Oc2ccc(cc2Cl)[C@H]1O [vancomycin, reference compound] |  |  |  |  |  |  |  |  |  | 1 µg/mL (≈ 0.69 µM)
